Reference: patent publication US20060069032A1 (L'OREAL, priority 2003, published 2006)

Experiments:
[1] = system: Transglutaminase 1 (TGK) messenger; assay: Transglutaminase I (TGK) messenger expression by quantitative RT-PCR in reconstructed epidermis SkinEthic; assay type: cell-based, human
Protocol: (§1) The study was carried out on a model of reconstructed epidermis SkinEthic. Upon receiving, the epidermes were precultured for 24 hours in SkinEthic medium. The culture medium was then replaced with medium containing the test product (two epidermes per concentration tested), and then the epidermes were cultured for 24 hours at 37° C. and 5% CO2. A batch of 2 epidermes was not treated. The culture supernatants were then removed and the epidermes were rinsed with a PBS solution, cut and deposited in sterile RNA-free tubes in the presence of Tri-Reagent (Sigma T9424) and then immediately frozen at −80° C.
(§2) The pairs of primers which were used in this study allow the amplification of the following specific fragments:
(§3) The reverse transcription was carried out in the following manner: • extraction of the total RNA of each epidermis with the aid of Tri-Reagent according to the protocol recommended by the supplier, and then a new extraction with chloroform and precipitation with isopropanol. • removal of the traces of potentially contaminating DNA by treating with the DNA-free system (Ambion) • carrying out of the reaction of reverse transcription of the mRNA in the presence of the oligo(dT) primer and of the enzyme Superscript II (Gibco) • quantification, by fluorescence, of the synthesized cDNA and adjustment of the concentrations of 50 ng/ml.
(§4) The PCR reactions (polymerase chain reactions) were carried out by quantitative PCR with the “Light cycler” system (Roche Molecular Systems Inc.) according to the procedures recommended by the supplier.
(§5) The PCR conditions were the following: activation of 10 min at 95° C., PCR reactions (10 sec at 95° C., 5 sec at 64° C. and 35 sec at 72° C.) 40 cycles, fusion of 5 sec at 95° C. and then 5 sec at 60° C.
(§6) The incorporation of fluorescence into the amplified DNA was measured continuously during the PCR cycles. This system makes it possible to obtain fluorescence measurement curves as a function of the PCR cycles and to thereby evaluate a relative expression value for each marker. The RE (relative expression) value is expressed in arbitrary units according to the following formula: (1/2^number of cycles)×10^6.
(§7) The results were expressed relative to the quantity of actin messenger (reference gene) and are represented, per marker, in the following tables.

[2] = system: Calmodulin-like skin protein (CLSP) messenger; assay: Calmodulin-like skin protein (CLSP) messenger expression by quantitative RT-PCR in reconstructed epidermis SkinEthic; assay type: cell-based, human; conditions: 0.01 μM, 24 hours
Protocol: as §1, §2, §3, §4, §5, §6, §7

[3] = system: Loricrin (LORI) messenger; assay: Loricrin messenger expression by quantitative RT-PCR in reconstructed epidermis SkinEthic; assay type: cell-based, human
Protocol: as §1, §2, §3, §4, §5, §6, §7

epidermal keratinocyte = conditions: Nissen J B et al, Exp. Dermatol. 1997; cited from earlier work
[4] = 0.01 μM, 24 hours, control = 100

β-Endorphin [Beta-endorphin]
RE*TGK (UA) ([1]; 0.01 μM, 24 hours): 0.165 UA
RE*actin (UA) ([1]; 0.01 μM, 24 hours, reference gene, TGK table): 1.11 UA
TGK/actin % control [1, 4]: 176%
expression of the TGK messenger (in words) ([1]; at physiological concentration): an effect of the same type, although slightly less pronounced
CLSP/actin [2]: 0.0961
RE*CLSP (UA) [2]: 0.1032 UA
RE*actin (UA) ([2]; reference gene, CLSP table): 1.07 UA
CLSP/actin % control ([2]; control = 100): 174%
LORI/actin ([3]; 0.01 μM, 24 hours): 10.2
RE*LORI (UA) ([3]; 0.01 μM, 24 hours): 11.24 UA
RE*actin (UA) ([3]; 0.01 μM, 24 hours, reference gene, loricrin table): 1.11 UA
LORI/actin % control [3, 4]: 179%
expression of the loricrin marker (in words) ([3]; at physiological concentration): stimulate the expression
effect on epidermal proliferation and differentiation (epidermal keratinocyte): no effect
